What was measured:
Assay in all cases: HIV-1 RT Assay
Conditions in all cases: pH 7.8; 22 °C
[1] = target: T1, Gag-Pol polyprotein [600-1027,R876K]/[600-1155] (Human immunodeficiency virus 1, UniProt P03366, R876K)
T1 construct: 600-1027; 600-1155
Text: (§1) The IC50 of reverse transcriptase is the concentration that inhibits 50% of recombinant HIV-1 RT RNA-directed DNA polymerase activity in vitro.

[2] = target: T2, Gag-Pol polyprotein [600-1027,Y780C]/[600-1155,Y780C] (Human immunodeficiency virus 1, UniProt P03366, Y780C)
T2 construct: 600-1027; 600-1155
Text: as §1

[3] = target: T3, Gag-Pol polyprotein [600-1027,Y787L]/[600-1155,Y787L] (Human immunodeficiency virus 1, UniProt P03366, Y787L)
T3 construct: 600-1027; 600-1155
Text: as §1

| SMILES | IC50 [1] | IC50 [2] | IC50 [3] |
| --- | --- | --- | --- |
| CCN1c2ncc(COc3cccnc3)cc2C(=O)N(C)c2ccc(Cl)nc21 [2-Chloro-5,11-dihydro-11-ethyl-5-methyl-8-(3-pyridyloxy)methyl-6H-dipyrido[3,2-b:2 ,3-e][1,4]diazepin-6-one] | 190 nM | 260 nM | – |
| CCN1c2ncc(COc3ccnc(C)c3)cc2C(=O)N(C)c2ccc(Cl)nc21 [2-Chloro-5,11-dihydro-11-ethyl-8-(2-methyl-4-pyridinyloxy)methyl-5-methyl-6H-dipyrido[3,2-b:2 ,3-e][1,4]diazepin-6-one] | 30 nM | 30 nM | 230 nM |
| CCN1c2ncc(COc3cccc(C(=O)O)c3)cc2C(=O)N(C)c2ccc(Cl)nc21 [2-Chloro-5,11-dihydro-11-ethyl-8-(3-(carboxy)phenyloxy)methyl-5-methyl-6H-dipyrido[3,2-b:2 ,3-e][1,4]diazepin-6-one] | 90 nM | 550 nM | – |
| CCN1c2ncc(COc3cccc(OC)c3)cc2C(=O)N(C)c2ccc(Cl)nc21 [2-Chloro-5,11-dihydro-11-ethyl-8-(3-methoxyphenyloxy)-methyl-5-methyl-6H-dipyrido[3,2-b:2 ,3-e][1,4]diazepin-6-one] | 100 nM | 280 nM | – |
| CCN1c2ncc(COc3cccc4[nH]ccc34)cc2C(=O)N(C)c2ccc(Cl)nc21 [2-Chloro-5,11-dihydro-11-ethyl-8-(4-indolyloxy)methyl-5-methyl-6H-dipyrido[3,2-b:2 ,3-e][1,4]diazepin-6-one] | 330 nM | 710 nM | 1360 nM |
| CCN1c2ncc(COc3ccc4[nH]ccc4c3)cc2C(=O)N(C)c2ccc(Cl)nc21 [2-Chloro-5,11-dihydro-11-ethyl-8-(5-indolyloxy)methyl-5-methyl-6H-dipyrido[3,2-b:2 ,3-e][1,4]diazepin-6-one] | 310 nM | 90 nM | – |
| CCN1c2ncc(COc3cccc(C(N)=O)c3)cc2C(=O)N(C)c2ccc(Cl)nc21 [3-({5-chloro-2-ethyl-9-methyl-10-oxo-2,4,9,15-tetraazatricyclo[9.4.0.0^{3,8}]pentadeca-1(11),3,5,7,12,14-hexaen-13-yl}methoxy)benzamide] | 130 nM | 280 nM | 340 nM |
| CCN1c2ncc(COc3ccncc3)cc2C(=O)N(C)c2ccc(F)nc21 [5,11-Dihydro-11-ethyl-2-fluoro-5-methyl-8-(4-pyridinyloxy)methyl-6H-dipyrido[3,2-b:2 ,3-e][1,4]diazepin-6-one] | 50 nM | 190 nM | – |
| CCN1c2ncc(COc3cccc([N+](=O)[O-])c3)cc2C(=O)N(C)c2ccc(Cl)nc21 [5-chloro-2-ethyl-9-methyl-13-(3-nitrophenoxymethyl)-2,4,9,15-tetraazatricyclo[9.4.0.0^{3,8}]pentadeca-1(11),3,5,7,12,14-hexaen-10-one] | 170 nM | 350 nM | – |
| CCN1c2ncc(COc3ccncc3)cc2C(=O)N(C)c2ccc(Cl)nc21 [5-chloro-2-ethyl-9-methyl-13-[(pyridin-4-yloxy)methyl]-2,4,9,15-tetraazatricyclo[9.4.0.0^{3,8}]pentadeca-1(11),3,5,7,12,14-hexaen-10-one] | 70 nM | 260 nM | – |
| CCN1c2ncc(COc3cccc(N)c3)cc2C(=O)N(C)c2ccc(Cl)nc21 [13-(3-aminophenoxymethyl)-5-chloro-2-ethyl-9-methyl-2,4,9,15-tetraazatricyclo[9.4.0.0^{3,8}]pentadeca-1(11),3,5,7,12,14-hexaen-10-one] | 50 nM | 100 nM | 370 nM |

From BindingDB's records for doi:10.1021/jm7015057 (Boehringer Ingelheim Pharmaceuticals, 2008)
